Reference: US6410054B1, “Immediate release eplerenone compositions” (G. D. Searle & Co., priority 1998, dated 2002)

Legend:
[1] = Single dose study: plasma pharmacokinetics of eplerenone, open lactone ring form, spironolactone
Experimental: The pharmacokinetics, safety and antialdosterone activity of single 10, 50, 100, 300 and 1000 mg oral doses of eplerenone were evaluated in a single-center, randomized, double-blind, placebo-controlled study.
The study employed seven parallel dose groups of eight healthy male humans.
The eplerenone capsules administered corresponded to the capsules (or combinations of the capsules) disclosed in Examples 4, 5, 7 and 8 above. The placebo was a conventional capsule containing lactose. […] The fludrocortisone used in the study consisted of commercially available fludrocortisone tablets (Florinef®, Squibb BV).
The subjects, who underwent a ten hour food fast prior to administration of the dose, received a single oral dose of one of the study medications together with about 180 mL of water at 0800 hours. […] Each dose of fludrocortisone was administered with 150 mL of water except for the 1.0 mg dose which was administered with 200 mL of water.
The plasma samples collected from subjects dosed with eplerenone were assayed for concentrations of eplerenone and the open lactone ring form of eplerenone. […] A subset of plasma samples was also assayed for testosterone levels. The urine collected was analyzed to determine concentrations and amounts of eplerenone and the open lactone ring form of eplerenone, the amount of sodium and potassium excreted, and the urinary log10 (sodium/potassium) ratio.

[2] = Multiple dose study: plasma pharmacokinetics and urinary excretion; format: in vivo, humans; conditions: for AUC / Cmax / Tmax / half-life: male, human, plasma, oral; for half-life: read-out: T½ (converted)
Experimental: Multiple oral dose tolerability and the pharmacokinetics of several dosages of eplerenone were evaluated in a double-blind, randomized, placebo-controlled, rising oral dose, sequential panel study of 40 healthy male subjects (five groups of eight subjects). The study medication was administered in […] sequential dose panels, with each panel including eplerenone, spironolactone and placebo. […] The 100 mg and 200 mg dose capsules corresponded to those described in Examples 7 and 8, respectively. Following a 48-hour interval, the study drug was administered once a day for 11 days. Antialdosterone activity was determined following a fludrocortisone challenge on Days 12-13.

[3] = Effect of food study: plasma pharmacokinetics fasted vs high-fat breakfast; format: in vivo, humans; conditions: for concentration at 0.5 h / concentration at 1 h / concentration at 2 h / concentration at 3 h / concentration at 4 h / concentration at 6 h / concentration at 8 h / concentration at 28 h / concentration at 48 h / concentration at 72 h / concentration at 12 h / concentration at 16 h / concentration at 24 h / concentration at 32 h / concentration at -0.5 h: male, human, plasma, oral, 100 mg, 100 mg eplerenone capsule; for concentration at 0.5 h: 0.5 hours after dosing; for concentration at 1 h: 1.0 hours after dosing; for concentration at 2 h: 2.0 hours after dosing; for concentration at 3 h: 3.0 hours after dosing; for concentration at 4 h: 4.0 hours after dosing; for concentration at 6 h: 6.0 hours after dosing; for concentration at 8 h: 8.0 hours after dosing; for concentration at 28 h: 28.0 hours after dosing; for concentration at 48 h: 48.0 hours after dosing; for concentration at 72 h: 72.0 hours after dosing; for concentration at 12 h / concentration at 16 h / concentration at 24 h / concentration at 32 h: […] after dosing; for concentration at -0.5 h: −0.5 hours after dosing
Experimental: An open-label randomized, cross-over study was employed to evaluate the pharmacokinetic profiles of eplerenone under fasted and fed conditions, and the safety and tolerability of eplerenone. Safety was assessed based on adverse events, vital signs and clinical laboratory tests. Twelve healthy male subjects were randomized to receive a single 100 mg dose of eplerenone on days 1 and 8 under (i) fasted conditions, or (ii) immediately following a high-fat breakfast. The subjects were orally administered (dosed) a single 100 mg dose of eplerenone in the form of the capsule described in Example 7, together with approximately 200 to 240 mL of water at 0800 hours on days 1 and 8. Subjects randomized to receive a high-fat breakfast were to completely ingest the meal within 20 minutes prior to dosing. The high-fat meal contained approximately 33 g protein, 75 g fat, 58 g carbohydrates and 1000 calories. […] All adverse events were mild in severity.

[4] = male, human, plasma, po, 300 mg
[5] = male, human, plasma, po, 1000 mg
[6] = 100 mg, eplerenone 100 mg Dose, Multiple Dose
[7] = 100 mg, eplerenone 100 mg Dose, Single Dose
[8] = 300 mg, eplerenone 300 mg Dose, Multiple Dose
[9] = 300 mg, eplerenone 300 mg Dose, Single Dose
[10] = 1000 mg, eplerenone 1000 mg Dose, Multiple Dose
[11] = 1000 mg, eplerenone 1000 mg Dose, Single Dose

Question: Which results are given for COC(=O)C1CC2=CC(=O)CCC2(C)C23OC2CC2(C)C(CC[C@@]24CCC(=O)O4)C13 (stereo partly drawn) [eplerenone, methyl hydrogen 9,11α-epoxy-17α-hydroxy-3-oxopregn-4-ene-7α,21-dicarboxylate, γ-lactone]?
Answer: concentration at 48 h [1, 4]: 1.7 ng/mL; concentration at 72 h [1, 4]: 0 ng/mL; concentration at 96 h [1, 4]: 0 ng/mL; half-life [1, 4]: 3.7 h; AUC(0-t) [1, 5]: 56400 ng·h/mL; Cmax [1, 5]: 7260 ng/mL; MRT [1, 5]: 7 h; Tmax [1, 5]: 2.5 h; concentration at 0.5 h [1, 5]: 3180 ng/mL; concentration at 1 h [1, 5]: 5260 ng/mL; concentration at 2 h [1, 5]: 5940 ng/mL; concentration at 3 h [1, 5]: 6810 ng/mL; concentration at 4 h [1, 5]: 6220 ng/mL; concentration at 6 h [1, 5]: 4150 ng/mL; concentration at 8 h [1, 5]: 2830 ng/mL; concentration at 12 h [1, 5]: 1340 ng/mL; concentration at 16 h [1, 5]: 647 ng/mL; concentration at 24 h [1, 5]: 208 ng/mL; concentration at 28 h [1, 5]: 107 ng/mL; concentration at 32 h [1, 5]: 61.7 ng/mL; concentration at 48 h [1, 5]: 22.3 ng/mL; concentration at 72 h [1, 5]: 1.4 ng/mL; concentration at 96 h [1, 5]: 0 ng/mL; half-life [1, 5]: 15.1 h; relationship between eplerenone dose and plasma concentration ([1]; single 10-1000 mg oral doses): linear relationship; dose proportionality of plasma concentrations and dose-adjusted AUC ([2]; 100 mg to 1000 mg, single or multiple doses): lack of dose proportionality; plasma concentrations at 24 hours postdose ([2]; all dosing groups (100, 300, 1000 mg)): detectable; AUC [2, 6]: 11800 ng·h/mL; Cmax [2, 6]: 1900 ng/mL; Tmax [2, 6]: 1.1 h; half-life [2, 6]: 4 h; AUC [2, 7]: 11300 ng·h/mL; Cmax [2, 7]: 1750 ng/mL; Tmax [2, 7]: 1.8 h; half-life [2, 7]: 3.9 h; AUC [2, 8]: 26500 ng·h/mL; Cmax [2, 8]: 3580 ng/mL; Tmax [2, 8]: 1.8 h; half-life [2, 8]: 4.6 h; AUC [2, 9]: 23900 ng·h/mL; Cmax [2, 9]: 3230 ng/mL; Tmax [2, 9]: 2.4 h; half-life [2, 9]: 4.6 h; AUC [2, 10]: 63200 ng·h/mL; Cmax [2, 10]: 7390 ng/mL; Tmax [2, 10]: 1.4 h; half-life [2, 10]: 6.2 h; AUC [2, 11]: 62100 ng·h/mL; Cmax [2, 11]: 6880 ng/mL; Tmax [2, 11]: 2 h; half-life [2, 11]: 8.7 h; accumulation ([2]; once a day for 11 days): no significant or dose-related accumulation; effect of high-fat meal on AUC0-96 ([3]; 100 mg capsule, fed vs fasted): minimal or no measurable effect; effect of high-fat meal on Cmax ([3]; 100 mg capsule, fed vs fasted): reduction; effect of high-fat meal on Tmax ([3]; 100 mg capsule, fed vs fasted): increase; effect of high-fat meal on T½ ([3]; 100 mg capsule, fed vs fasted): minimal or no measurable effect; concentration at 0.5 h ([3]; Fasted Conditions): 1010 ng/mL; concentration at 1 h ([3]; Fasted Conditions): 1560 ng/mL; concentration at 2 h ([3]; Fasted Conditions): 1390 ng/mL; concentration at 3 h ([3]; Fasted Conditions): 1170 ng/mL; concentration at 4 h ([3]; Fasted Conditions): 955 ng/mL; concentration at 6 h ([3]; Fasted Conditions): 587 ng/mL; concentration at 8 h ([3]; Fasted Conditions): 388 ng/mL; concentration at 28 h ([3]; Fasted Conditions): 7.62 ng/mL; concentration at 48 h ([3]; Fasted Conditions): 0 ng/mL; concentration at 72 h ([3]; Fasted Conditions): 0 ng/mL; concentration at 12 h ([3]; Fasted Conditions): 151 ng/mL; concentration at 16 h ([3]; Fasted Conditions): 68.8 ng/mL; concentration at 24 h ([3]; Fasted Conditions): 17.7 ng/mL; concentration at 32 h ([3]; Fasted Conditions): 3.28 ng/mL; concentration at -0.5 h ([3]; Fasted Conditions): 0 ng/mL; concentration at 0.5 h ([3]; High Fat Breakfast): 71.2 ng/mL; concentration at 1 h ([3]; High Fat Breakfast): 366 ng/mL; concentration at 2 h ([3]; High Fat Breakfast): 712 ng/mL; concentration at 3 h ([3]; High Fat Breakfast): 1040 ng/mL; concentration at 4 h ([3]; High Fat Breakfast): 1240 ng/mL; concentration at 6 h ([3]; High Fat Breakfast): 946 ng/mL; concentration at 8 h ([3]; High Fat Breakfast): 673 ng/mL; concentration at 28 h ([3]; High Fat Breakfast): 21.7 ng/mL; concentration at 48 h ([3]; High Fat Breakfast): 1.91 ng/mL; concentration at 72 h ([3]; High Fat Breakfast): 0 ng/mL; concentration at 12 h ([3]; High Fat Breakfast): 282 ng/mL; concentration at 16 h ([3]; High Fat Breakfast): 130 ng/mL; concentration at 24 h ([3]; High Fat Breakfast): 39 ng/mL; concentration at 32 h ([3]; High Fat Breakfast): 7.51 ng/mL; concentration at -0.5 h ([3]; High Fat Breakfast): 0 ng/mL
